Test results from patent US20260191968A1, “PROTAC DEGRADERS OF MLLT1 AND/OR MLLT3” (DARK BLUE THERAPEUTICS LTD, priority 2024, published 2026).

What was measured:
MLLT1 = biological target: T1, MLLT1 (Homo sapiens, UniProt Q03111); experiment: MLLT1 degradation assay in MV4-11 cells (JESS chemiluminescent detection), three concentrations, 24 h; assay type: cell-based; details: with respect to DMSO control
T1 construct: host or cells: MV4-11
T1 sequence (Q03111 1-559): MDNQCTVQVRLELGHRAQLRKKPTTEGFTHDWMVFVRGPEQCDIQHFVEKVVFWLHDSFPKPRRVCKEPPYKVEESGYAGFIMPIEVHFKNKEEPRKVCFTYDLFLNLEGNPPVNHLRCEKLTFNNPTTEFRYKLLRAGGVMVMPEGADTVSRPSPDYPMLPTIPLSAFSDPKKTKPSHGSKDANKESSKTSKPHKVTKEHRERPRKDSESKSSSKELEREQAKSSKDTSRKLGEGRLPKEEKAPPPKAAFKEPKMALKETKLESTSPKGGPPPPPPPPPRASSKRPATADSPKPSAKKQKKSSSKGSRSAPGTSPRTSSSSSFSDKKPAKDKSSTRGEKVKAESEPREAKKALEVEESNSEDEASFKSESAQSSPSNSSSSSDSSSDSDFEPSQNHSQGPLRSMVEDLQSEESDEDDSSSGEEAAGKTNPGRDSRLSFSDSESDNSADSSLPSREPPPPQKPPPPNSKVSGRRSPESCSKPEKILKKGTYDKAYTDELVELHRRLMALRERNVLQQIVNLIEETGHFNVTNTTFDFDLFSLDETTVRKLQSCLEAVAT
Summary of the method: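 MV4-11 cells treated 24 h at 37° C, 5% CO2 with 1000, 100 and 10 nM compound (0.1% DMSO final). MLLT1 quantified by automated capillary chemiluminescent immunodetection; band peak area expressed as % degradation relative to DMSO control.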

MV4-11 cells = experiment: MV4-11 cellular proliferative assay, Assay Format B (CTG 2.0, 168 h); assay type: cell-based; details: Homo sapiens, 168 h (7 days), CTG 2.0, read-out: IC50 (MV4-11 cellular proliferative assay, Assay format B)
Summary of the method: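 MV4-11 cells seeded overnight in IMDM + 10% FBS, then exposed to 10-point, 3-fold dilutions from 1 uM or 100 nM top concentration (0.3% DMSO final) for 168 h at 37 °C. CTG 2.0 luminescence read; % viability vs DMSO control fitted by four-parameter logistic regression.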

| SMILES | MLLT1% Degradation @ 0.01 μM (MLLT1) | MLLT1% Degradation @ 0.1 μM (MLLT1) | MLLT1% Degradation @ 1 μM (MLLT1) | IC50 (MV4-11 cells) [nM] |
| --- | --- | --- | --- | --- |
| CN1CCC[C@@H]1c1cc2cnc(NC(=O)c3ccc(CCCC#Cc4ccc(F)c5c4CN(C4CCC(=O)NC4=O)C5=O)cc3)cc2[nH]1 (stereo partly drawn) [Example 91, 4-(5-(2-(2,6-dioxopiperidin-3-yl)-7-fluoro-1-oxoisoindolin-4-yl)pent-4-yn-1-yl)-N-(2-((R)-1-methylpyrrolidin-2-yl)-1H-pyrrolo[3,2-c]pyridin-6-yl)benzamide] | A (Category A: A ≥ 75% degradation) | A (Category A: A ≥ 75% degradation) | A (Category A: A ≥ 75% degradation) | ≤ 100 |
| CN1CCC[C@@H]1c1cc2cnc(NC(=O)c3ccc(CCCC#Cc4cccc5c4CN(C4CCC(=O)NC4=O)C5=O)c(F)c3)cc2[nH]1 (stereo partly drawn) [Example 93, 4-(5-(2-(2,6-dioxopiperidin-3-yl)-1-oxoisoindolin-4-yl)pent-4-yn-1-yl)-3-fluoro-N-(2-((R)-1-methylpyrrolidin-2-yl)-1H-pyrrolo[3,2-c]pyridin-6-yl)benzamide] | A (Category A: A ≥ 75% degradation) | A (Category A: A ≥ 75% degradation) | A (Category A: A ≥ 75% degradation) | ≤ 100 |
| CN1CCC[C@@H]1c1cc2cnc(NC(=O)c3ccc(CCCC#Cc4cccc5c4CN(C4CCC(=O)NC4=O)C5=O)cc3F)cc2[nH]1 (stereo partly drawn) [Example 94, 4-(5-(2-(2,6-dioxopiperidin-3-yl)-1-oxoisoindolin-4-yl)pent-4-yn-1-yl)-2-fluoro-N-(2-((R)-1-methylpyrrolidin-2-yl)-1H-pyrrolo[3,2-c]pyridin-6-yl)benzamide] | A (Category A: A ≥ 75% degradation) | A (Category A: A ≥ 75% degradation) | A (Category A: A ≥ 75% degradation) | ≤ 100 |
| CN1CCC[C@@H]1c1cc2cnc(NC(=O)c3cccc(CCCC#Cc4cccc5c4CN(C4CCC(=O)NC4=O)C5=O)c3)cc2[nH]1 (stereo partly drawn) [Example 95, 3-(5-(2-(2,6-dioxopiperidin-3-yl)-1-oxoisoindolin-4-yl)pent-4-yn-1-yl)-N-(2-((R)-1-methylpyrrolidin-2-yl)-1H-pyrrolo[3,2-c]pyridin-6-yl)benzamide] | A (Category A: A ≥ 75% degradation) | A (Category A: A ≥ 75% degradation) | A (Category A: A ≥ 75% degradation) | ≤ 100 |
| CN1CCC[C@@H]1c1cc2cnc(NC(=O)c3cccc(CCCCC#Cc4cccc5c4CN(C4CCC(=O)NC4=O)C5=O)c3)cc2[nH]1 (stereo partly drawn) [Example 96, 3-(6-(2-(2,6-dioxopiperidin-3-yl)-1-oxoisoindolin-4-yl)hex-5-yn-1-yl)-N-(2-((R)-1-methylpyrrolidin-2-yl)-1H-pyrrolo[3,2-c]pyridin-6-yl)benzamide] | A (Category A: A ≥ 75% degradation) | A (Category A: A ≥ 75% degradation) | A (Category A: A ≥ 75% degradation) | ≤ 100 |
| Cc1cc(C2CCN(c3ccc(C(=O)Nc4cc5[nH]c([C@H]6CCCN6C)cc5cn4)cn3)CC2)ccc1-c1cccc2c1CN(C1CCC(=O)NC1=O)C2=O (stereo partly drawn) [Example 99, 6-(4-(4-(2-(2,6-dioxopiperidin-3-yl)-1-oxoisoindolin-4-yl)-3-methylphenyl)piperidin-1-yl)-N-(2-((R)-1-methylpyrrolidin-2-yl)-1H-pyrrolo[3,2-c]pyridin-6-yl)nicotinamide] | B (Category B: 50% ≤ B < 75% degradation) | A (Category A: A ≥ 75% degradation) | A (Category A: A ≥ 75% degradation) | ≤ 100 |
| CN1CCC[C@@H]1c1[nH]c2cc(NC(=O)c3ccc(CCCC#Cc4cccc5c4CN(C4CCC(=O)NC4=O)C5=O)cc3)ncc2c1Cl (stereo partly drawn) [Example 100, N-(3-chloro-2-((R)-1-methylpyrrolidin-2-yl)-1H-pyrrolo[3,2-c]pyridin-6-yl)-4-(5-(2-(2,6-dioxopiperidin-3-yl)-1-oxoisoindolin-4-yl)pent-4-yn-1-yl)benzamide] | A (Category A: A ≥ 75% degradation) | A (Category A: A ≥ 75% degradation) | A (Category A: A ≥ 75% degradation) | ≤ 100 |
| CN1CCC[C@@H]1c1cc2cnc(NC(=O)c3ccc(C4CCN(C(=O)CC5CCN(c6cccc7c6CN(C6CCC(=O)NC6=O)C7=O)CC5)CC4)cc3)cc2[nH]1 (stereo partly drawn) [Example 107, 4-(1-(2-(1-(2-(2,6-dioxopiperidin-3-yl)-1-oxoisoindolin-4-yl)piperidin-4-yl)acetyl)piperidin-4-yl)-N-(2-((R)-1-methylpyrrolidin-2-yl)-1H-pyrrolo[3,2-c]pyridin-6-yl)benzamide] | B (Category B: 50% ≤ B < 75% degradation) | A (Category A: A ≥ 75% degradation) | A (Category A: A ≥ 75% degradation) | ≤ 100 |
| CN1CCC[C@@H]1c1cc2cnc(NC(=O)c3ccc(N4CCN(C(=O)CC5CCN(c6cccc7c6CN(C6CCC(=O)NC6=O)C7=O)CC5)CC4)nc3)cc2[nH]1 (stereo partly drawn) [Example 108, 6-(4-(2-(1-(2-(2,6-dioxopiperidin-3-yl)-1-oxoisoindolin-4-yl)piperidin-4-yl)acetyl)piperazin-1-yl)-N-(2-((R)-1-methylpyrrolidin-2-yl)-1H-pyrrolo[3,2-c]pyridin-6-yl)nicotinamide] | A (Category A: A ≥ 75% degradation) | A (Category A: A ≥ 75% degradation) | B (Category B: 50% ≤ B < 75% degradation) | ≤ 100 |
| CN1CCC[C@@H]1c1cc2cnc(NC(=O)c3ccc(N4CCC(OCc5ccc(-c6cccc7c6CN(C6CCC(=O)NC6=O)C7=O)cc5)CC4)nc3)cc2[nH]1 (stereo partly drawn) [Example 109, 6-(4-((4-(2-(2,6-dioxopiperidin-3-yl)-1-oxoisoindolin-4-yl)benzyl)oxy)piperidin-1-yl)-N-(2-((R)-1-methylpyrrolidin-2-yl)-1H-pyrrolo[3,2-c]pyridin-6-yl)nicotinamide] | B (Category B: 50% ≤ B < 75% degradation) | A (Category A: A ≥ 75% degradation) | A (Category A: A ≥ 75% degradation) | ≤ 100 |
| CN1CCC[C@@H]1c1cc2cnc(NC(=O)c3ccc(CCCCC#Cc4cccc5c4CN(C4CCC(=O)NC4=O)C5=O)cc3F)cc2[nH]1 (stereo partly drawn) [Example 112, 4-(6-(2-(2,6-dioxopiperidin-3-yl)-1-oxoisoindolin-4-yl)hex-5-yn-1-yl)-2-fluoro-N-(2-((R)-1-methylpyrrolidin-2-yl)-1H-pyrrolo[3,2-c]pyridin-6-yl)benzamide] | A (Category A: A ≥ 75% degradation) | A (Category A: A ≥ 75% degradation) | A (Category A: A ≥ 75% degradation) | ≤ 100 |

Other lines, results leading:

| MLLT1% Degradation @ 0.01 μM (MLLT1) | MLLT1% Degradation @ 0.1 μM (MLLT1) | MLLT1% Degradation @ 1 μM (MLLT1) | IC50 (MV4-11 cells) [nM] | SMILES |
| --- | --- | --- | --- | --- |
| A (Category A: A ≥ 75% degradation) | A (Category A: A ≥ 75% degradation) | A (Category A: A ≥ 75% degradation) | ≤ 100 | CN1CCC[C@@H]1c1cc2cnc(NC(=O)c3ccc(N4CCN(Cc5ccc(-c6cccc7c6CN(C6CCC(=O)NC6=O)C7=O)cc5)CC4)cc3)cc2[nH]1 (stereo partly drawn) [Example 98, 4-(4-(4-(2-(2,6-dioxopiperidin-3-yl)-1-oxoisoindolin-4-yl)benzyl)piperazin-1-yl)-N-(2-((R)-1-methylpyrrolidin-2-yl)-1H-pyrrolo[3,2-c]pyridin-6-yl)benzamide] |
| A (Category A: A ≥ 75% degradation) | A (Category A: A ≥ 75% degradation) | A (Category A: A ≥ 75% degradation) | ≤ 100 | CN1CCC[C@@H]1c1cc2cnc(NC(=O)c3ccc(CCCC#Cc4cc(F)cc5c4CN(C4CCC(=O)NC4=O)C5=O)cc3)cc2[nH]1 (stereo partly drawn) [Example 101, 4-(5-(2-(2,6-dioxopiperidin-3-yl)-6-fluoro-1-oxoisoindolin-4-yl)pent-4-yn-1-yl)-N-(2-((R)-1-methylpyrrolidin-2-yl)-1H-pyrrolo[3,2-c]pyridin-6-yl)benzamide] |
| A (Category A: A ≥ 75% degradation) | A (Category A: A ≥ 75% degradation) | A (Category A: A ≥ 75% degradation) | ≤ 100 | [2H]C([2H])([2H])N1CCC[C@@H]1c1cc2cnc(NC(=O)c3ccc(CCCC#Cc4cccc5c4CN(C4CCC(=O)NC4=O)C5=O)cc3)cc2[nH]1 (stereo partly drawn) [Example 111, 4-(5-(2-(2,6-dioxopiperidin-3-yl)-1-oxoisoindolin-4-yl)pent-4-yn-1-yl)-N-(2-((R)-1-(methyl-d3)pyrrolidin-2-yl)-1H-pyrrolo[3,2-c]pyridin-6-yl)benzamide] |
